≈ marks a conversion by molar mass, not a printed value.
Experiments:
[1] = test system: human endothelial cells co-cultured with human fibroblast cells; experiment: Microvessel/tubule formation and disruption assay, TCS CellWorks AngioKit model; type: cell-based; settings: treated on day 11, stained on day 12
Experimental: To study the effect of Nab-5404 and Nab-5676 on angiogenesis, the compounds were evaluated in a microvessel formation assay using a TCS CellWorks AngioKit model (TCS CellWorks Ltd., Botolph Claydon, Buckingham UK). The AngioKit model uses human endothelial cells co-cultured with other human cells. The endothelial cells initially form small islands within the culture matrix, then begin to proliferate and then enter a migratory phase during which they move through the matrix to form threadlike tubule structures. These gradually join up to form a network of tubules which closely resemble a capillary bed (at day 9-11). The tubules stain positive for von Willebrand's factor, CD31 (PECAM-1) and ICAM-2.
In addition to Nab-5404 and Nab-5676, a known vascular targeting agent, combretastatin 4-phosphate (CA4P), was tested for in vitro anti-angiogenic activity. The TCS CellWorks AngioKit model was used according to the manufacturer's instructions. As outlined above, human endothelial cells were co-cultured with human fibroblast cells in a 24 well plate and exposed to Nab-5404, Nab-5676 or CA4P across a range of concentrations (0.01 to 100 μg/ml). […] The length of the tubules was analyzed using ImagePro software and the IC50 of each compound was calculated using Prism software. […]

[2] = test system: established HT-29 colon cell tumors; settings: mice, every day for 4 doses; cited from earlier work
[3] = test system: established HT-29 colon cell tumors; experiment: Anti-tumor activity in HT-29 xenograft mouse model; type: in vivo; settings: 100 mg/kg every day for 4 doses, tumors 900 mm^3
Experimental: The anti-tumor activity of Nab-5404 and Nab-5676 was evaluated in a xenograft mouse model. The compounds were tested against established HT-29 colon cell tumors in vivo in two cycles, the first a low-dosage schedule followed by a second high-dosage schedule. Irinotecan was used as a positive control in the study. Mice (n=10) were separated into 8 groups with Nab-5404 and Nab-5676 mice receiving the compounds by intravenous injection. The first cycle consisted of administration of Nab-5404 or Nab-5676 every 3 days for 4 doses for days 0-14 followed by the second cycle which consisted of administration of Nab-5404 or Nab-5676 every 3 days for 4 doses for days 15-30. Irinotecan was administered by intravenous injection at a dose of 60 mg/kg every 3 days for 4 doses. The individual groups are shown in Table 2, wherein 1st cycle refers to days 0-14 and 2nd cycle refers to days 15-30.
Combretastatin 4-phosphate (CA4P) was also administered to HT-29 tumor-bearing mice in a separate experiment. The mice (n=10) were treated once tumors reached 900 mm^3 with either vehicle or CA4P at the reported MTD of 100 mg/kg on a schedule of every day for 4 doses.

**Q.** With `COc1ccc(/C=C\c2cc(OC)c(OC)c(OC)c2)cc1OP(=O)(O)O` [CA4P, combretastatin 4-phosphate] as the compound, how does the “IC50 disrupting established tubules (tubule length)” value [1] read?
**A.** 3 ng/mL (≈ 7.57 nM)

**Q.** And the “Reported MTD” value [2]?
**A.** 100 mg/kg

**Q.** What about the “Activity in HT-29 tumor model” value [3] of the same compound?
**A.** inactive
